Here are results for twelve compounds from ChEMBL document CHEMBL1909046, “DrugMatrix in vitro pharmacology data”.

Assay [1] deals with Vascular endothelial growth factor receptor 1 (Homo sapiens, UniProt P17948). Description: biochemical. It is filed as cell-based, HUVEC.
The target in assay [2] is T1, Angiotensin-converting enzyme (Oryctolagus cuniculus, UniProt P12822).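 Note: enzymatic inhibition of angiotensin-converting enzyme measured with FAPGG as the substrate; in other assays of this panel Not Active means under 50% inhibition at 10 µM.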
T1 sequence (P12822 whole entry): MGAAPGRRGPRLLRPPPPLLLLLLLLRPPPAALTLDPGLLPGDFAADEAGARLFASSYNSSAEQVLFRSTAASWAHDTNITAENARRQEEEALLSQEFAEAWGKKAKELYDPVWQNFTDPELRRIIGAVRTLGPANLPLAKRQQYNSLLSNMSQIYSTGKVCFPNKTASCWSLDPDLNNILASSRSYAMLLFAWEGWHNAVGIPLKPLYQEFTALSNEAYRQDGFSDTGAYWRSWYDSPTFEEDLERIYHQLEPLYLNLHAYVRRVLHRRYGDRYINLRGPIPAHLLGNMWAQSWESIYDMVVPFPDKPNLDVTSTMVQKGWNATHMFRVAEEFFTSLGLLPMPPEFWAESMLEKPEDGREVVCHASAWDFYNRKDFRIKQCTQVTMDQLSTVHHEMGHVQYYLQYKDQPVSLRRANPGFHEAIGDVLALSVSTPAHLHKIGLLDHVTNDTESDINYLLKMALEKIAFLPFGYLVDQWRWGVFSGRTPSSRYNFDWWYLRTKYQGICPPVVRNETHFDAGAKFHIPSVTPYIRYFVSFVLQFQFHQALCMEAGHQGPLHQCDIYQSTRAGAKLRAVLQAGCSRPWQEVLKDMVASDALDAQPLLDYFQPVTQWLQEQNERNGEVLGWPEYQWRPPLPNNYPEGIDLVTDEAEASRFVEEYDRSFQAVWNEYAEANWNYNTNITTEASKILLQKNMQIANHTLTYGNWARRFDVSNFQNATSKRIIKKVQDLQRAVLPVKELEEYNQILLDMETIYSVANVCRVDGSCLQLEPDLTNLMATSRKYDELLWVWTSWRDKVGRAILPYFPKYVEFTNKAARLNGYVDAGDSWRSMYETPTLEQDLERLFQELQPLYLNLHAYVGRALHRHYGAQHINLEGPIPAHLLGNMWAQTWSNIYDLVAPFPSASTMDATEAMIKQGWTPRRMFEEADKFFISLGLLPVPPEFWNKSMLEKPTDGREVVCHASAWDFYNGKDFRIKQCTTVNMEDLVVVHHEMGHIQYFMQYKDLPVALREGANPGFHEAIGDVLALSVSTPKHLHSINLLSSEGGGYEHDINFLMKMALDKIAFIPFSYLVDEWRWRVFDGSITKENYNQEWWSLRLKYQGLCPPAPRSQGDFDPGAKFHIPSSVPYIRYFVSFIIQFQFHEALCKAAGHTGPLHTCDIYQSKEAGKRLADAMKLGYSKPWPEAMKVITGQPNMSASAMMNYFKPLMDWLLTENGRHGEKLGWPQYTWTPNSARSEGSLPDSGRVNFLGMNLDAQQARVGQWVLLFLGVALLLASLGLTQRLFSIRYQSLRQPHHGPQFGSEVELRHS
It is filed as tissue-based, Lung.

Assay [3] concerns the target T2, Type-2 angiotensin II receptor (Homo sapiens, UniProt P50052). Note: in other assays of this panel Not Active means under 50% inhibition at 10 µM.
T2 sequence (P50052 whole entry): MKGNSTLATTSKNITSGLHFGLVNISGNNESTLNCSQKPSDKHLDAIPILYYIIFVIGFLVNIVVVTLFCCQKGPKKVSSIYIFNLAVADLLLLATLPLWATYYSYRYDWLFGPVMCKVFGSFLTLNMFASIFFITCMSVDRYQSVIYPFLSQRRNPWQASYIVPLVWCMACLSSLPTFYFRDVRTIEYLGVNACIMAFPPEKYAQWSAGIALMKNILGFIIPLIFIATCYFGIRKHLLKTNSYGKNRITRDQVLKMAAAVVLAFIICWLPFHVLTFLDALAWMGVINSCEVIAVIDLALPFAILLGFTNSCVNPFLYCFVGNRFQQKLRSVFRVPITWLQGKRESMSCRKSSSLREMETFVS
The assay is classed as cell-based. As to conditions: cho-k1.

The nature of assay [4]: DRUGMATRIX: Phosphodiesterase PDE3 enzyme inhibition (substrate: [3H]cAMP + cAMP). It is filed as tissue-based, Homo sapiens. As to conditions: platelet; Not Active = under 50% inhibition at 10 µM.
The target in another assay is T3, Adenosine receptor A1 (Homo sapiens, UniProt P30542).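 Note: radioligand binding assay at the adenosine A1 receptor, with DPCPX serving as the labelled ligand; in other assays of this panel Not Active means under 50% inhibition at 10 µM.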
T3 sequence (P30542 whole entry): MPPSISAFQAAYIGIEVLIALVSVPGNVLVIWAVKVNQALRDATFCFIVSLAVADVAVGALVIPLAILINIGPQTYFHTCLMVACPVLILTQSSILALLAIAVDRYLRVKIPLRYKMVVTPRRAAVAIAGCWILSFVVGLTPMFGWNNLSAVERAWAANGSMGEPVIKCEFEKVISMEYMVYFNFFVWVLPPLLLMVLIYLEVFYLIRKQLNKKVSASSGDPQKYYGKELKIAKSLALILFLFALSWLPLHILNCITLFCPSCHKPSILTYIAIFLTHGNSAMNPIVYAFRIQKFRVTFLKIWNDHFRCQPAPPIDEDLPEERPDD
It is filed as cell membranes, CHO, Membrane. The settings on record: cho.

The target of assay [5] is T4, C-X-C chemokine receptor type 1 (Homo sapiens, UniProt P25024). Note: in other assays of this panel Not Active means under 50% inhibition at 10 µM.
T4 sequence (P25024 whole entry): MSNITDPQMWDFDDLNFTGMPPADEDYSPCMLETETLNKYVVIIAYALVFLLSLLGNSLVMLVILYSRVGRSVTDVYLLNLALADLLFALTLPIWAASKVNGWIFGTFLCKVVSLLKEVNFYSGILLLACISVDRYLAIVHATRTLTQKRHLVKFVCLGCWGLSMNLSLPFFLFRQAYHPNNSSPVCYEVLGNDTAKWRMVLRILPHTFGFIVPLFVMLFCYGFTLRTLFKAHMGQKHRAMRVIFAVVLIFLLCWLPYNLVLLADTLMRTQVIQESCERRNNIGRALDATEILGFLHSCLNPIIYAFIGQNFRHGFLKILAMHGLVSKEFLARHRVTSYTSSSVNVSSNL

Assay [6] is described as follows: DRUGMATRIX: Serotonin (5-Hydroxytryptamine) 5-HT3 radioligand binding (ligand: [3H] GR-65630). As to conditions: hek293; Not Active = under 50% inhibition at 10 µM. It is filed as cell membranes, Membrane.

Vascular endothelial growth factor receptor 1, sequence (P17948 whole entry): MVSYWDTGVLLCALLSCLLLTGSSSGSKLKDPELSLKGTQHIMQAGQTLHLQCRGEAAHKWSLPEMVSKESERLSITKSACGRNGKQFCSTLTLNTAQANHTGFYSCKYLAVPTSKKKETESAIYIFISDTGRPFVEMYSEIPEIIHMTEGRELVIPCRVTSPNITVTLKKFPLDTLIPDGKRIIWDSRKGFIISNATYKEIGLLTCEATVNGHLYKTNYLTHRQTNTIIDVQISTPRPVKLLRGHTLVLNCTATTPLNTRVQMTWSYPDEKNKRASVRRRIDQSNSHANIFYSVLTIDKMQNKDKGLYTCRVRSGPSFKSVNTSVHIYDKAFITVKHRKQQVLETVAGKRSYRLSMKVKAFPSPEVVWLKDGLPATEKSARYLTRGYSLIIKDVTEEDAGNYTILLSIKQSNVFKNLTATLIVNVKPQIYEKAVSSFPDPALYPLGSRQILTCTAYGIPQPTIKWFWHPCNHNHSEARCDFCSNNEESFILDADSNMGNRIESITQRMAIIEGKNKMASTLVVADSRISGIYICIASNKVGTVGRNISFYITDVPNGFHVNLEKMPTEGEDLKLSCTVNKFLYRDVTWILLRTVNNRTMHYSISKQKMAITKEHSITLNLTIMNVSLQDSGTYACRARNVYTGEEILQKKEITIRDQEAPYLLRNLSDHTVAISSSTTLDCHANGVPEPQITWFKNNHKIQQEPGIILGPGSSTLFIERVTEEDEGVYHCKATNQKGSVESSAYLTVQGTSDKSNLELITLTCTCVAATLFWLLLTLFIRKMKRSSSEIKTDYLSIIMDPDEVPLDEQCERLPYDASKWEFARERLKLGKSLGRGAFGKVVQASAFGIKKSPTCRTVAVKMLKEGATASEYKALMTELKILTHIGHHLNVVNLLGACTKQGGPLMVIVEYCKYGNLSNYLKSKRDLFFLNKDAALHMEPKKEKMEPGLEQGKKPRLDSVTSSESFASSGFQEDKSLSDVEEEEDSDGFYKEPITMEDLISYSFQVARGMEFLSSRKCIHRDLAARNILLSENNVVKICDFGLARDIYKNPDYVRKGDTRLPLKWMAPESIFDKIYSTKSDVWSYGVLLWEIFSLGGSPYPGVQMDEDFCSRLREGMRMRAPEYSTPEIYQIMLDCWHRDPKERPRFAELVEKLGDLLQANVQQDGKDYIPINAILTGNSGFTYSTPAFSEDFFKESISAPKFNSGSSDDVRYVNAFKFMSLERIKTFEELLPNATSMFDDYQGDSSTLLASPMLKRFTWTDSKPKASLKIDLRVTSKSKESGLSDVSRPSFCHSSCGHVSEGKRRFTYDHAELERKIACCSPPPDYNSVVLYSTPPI

For orientation: IC50 means the concentration needed to halve the response being measured. By Ki is commonly meant the dissociation constant of the complex between target and ligand, obtained from inhibition or displacement. For the compound `C[C@@H]1C[C@H]2[C@@H]3CCC4=CC(=O)C=C[C@]4(C)[C@@]3(F)[C@@H](O)C[C@]2(C)[C@H]1C(=O)CO` [DESOXIMETASONE], the half-maximal inhibitory concentration (IC50) entry (in assay [1] (huvec); in assay [2]; in assay [3]; in assay [4]; at Adenosine receptor A1; in assay [5]) was “Not Active” in each case. Further, in assay [6], the IC50 entry is listed as “Not Active”. In addition, the inhibition constant Ki entry in assay [4] and in assay [6] was “Not Active” throughout.
`C[C@@H]1C[C@H]2[C@@H]3CCC4=CC(=O)C=C[C@]4(C)[C@@]3(F)[C@@H](O)C[C@]2(C)[C@@]1(O)C(=O)CO` [DEXAMETHASONE]: the half-inhibitory concentration (IC50) result (in assay [1] (huvec); in assay [2]; in assay [3]; in assay [4]; at Adenosine receptor A1; in assay [5]) was “Not Active” in each case. Besides, the IC50 entry in assay [6] is reported as “Not Active”. The inhibition constant (Ki) result in assay [4] and in assay [6] was “Not Active” in each case.
As to `CN(C)CC[C@@H](c1ccc(Cl)cc1)c1ccccn1` [DEXCHLORPHENIRAMINE], the IC50 entry (in assay [1] (huvec); in assay [2]; in assay [3]; in assay [4]; against Adenosine receptor A1; in assay [5]) was “Not Active” throughout. For the same compound, the half-inhibitory concentration (IC50) entry in assay [6] is given as “Not Active”. The inhibition constant (Ki) result in assay [4] and in assay [6] was “Not Active” each time.
For `C[C@@H]1CC[C@@]2(OC1)O[C@H]1[C@@H](O)[C@H]3[C@@H]4CC[C@H]5C[C@@H](O[C@@H]6O[C@H](CO)[C@H](O[C@@H]7O[C@H](CO)C(O)[C@H](O[C@@H]8OC[C@@H](O)[C@H](O)[C@H]8O)[C@H]7O[C@@H]7O[C@H](CO)[C@H](O)[C@H](O[C@@H]8O[C@H](CO)[C@@H](O)[C@H](O)[C@H]8O)[C@H]7O)[C@H](O)[C@H]6O)[C@H](O)C[C@]5(C)[C@H]4CC[C@]3(C)[C@H]1[C@@H]2C` (some centres undefined) [DIGITONIN], the IC50 in assay [1] (read-out: IC50) was 3.86 µM; in assay [2], “Not Active”; in assay [3], “Not Active”; in assay [4], “Not Active”; against Adenosine receptor A1 it was “Not Active”; in assay [5] it was “Not Active”. Further, the IC50 result in assay [6] is “Not Active”. The inhibition constant Ki was 1 µM in assay [1] (read-out: Ki), “Not Active” in assay [4] and “Not Active” in assay [6].
As for `OC(CCCN1CCCCC1)(c1ccccc1)c1ccccc1` [DIPHENIDOL], the 50% inhibitory concentration (IC50) entry (in assay [1] (huvec); in assay [2]; in assay [3]; in assay [4]; at Adenosine receptor A1; in assay [5]) was “Not Active” throughout. The concentration for half-maximal inhibition (IC50) entry in assay [6] is given as “Not Active”. Further, the Ki result in assay [4] and in assay [6] was “Not Active” in each case.
Turning to `C[C@H]1O[C@@H](n2cc(F)c(=O)[nH]c2=O)[C@H](O)[C@@H]1O` [DOXIFLURIDINE], the IC50 result (in assay [1] (huvec); in assay [2]; in assay [3]; in assay [4]; against Adenosine receptor A1; in assay [5]) was “Not Active” throughout. For the same compound, the IC50 result in assay [6] is “Not Active”. The inhibitory constant (Ki) entry in assay [4] and in assay [6] was “Not Active” throughout.
Turning to `Cn1c(=O)c2c(ncn2CC(O)CO)n(C)c1=O` (centres undefined) [DYPHYLLINE], the IC50 result (in assay [1] (huvec); in assay [2]; in assay [3]; in assay [4]; against Adenosine receptor A1; in assay [5]) was “Not Active” in each case. Besides, the 50% inhibitory concentration (IC50) entry in assay [6] is “Not Active”. The Ki entry in assay [4] and in assay [6] was “Not Active” throughout.
As for `CC[C@H]1CN2CCc3cc(OC)c(OC)cc3[C@@H]2C[C@@H]1C[C@H]1NCCc2cc(OC)c(OC)cc21` [EMETINE], the half-inhibitory concentration (IC50) result (in assay [1] (huvec); in assay [2]; in assay [3]; in assay [4]; at Adenosine receptor A1; in assay [5]) was “Not Active” in each case. Further, the IC50 entry in assay [6] is listed as “Not Active”. Further, the Ki entry in assay [4] and in assay [6] was “Not Active” throughout.
In the case of `C[C@@H](CO)NC(=O)[C@@H]1C=C2c3cccc4[nH]cc(c34)C[C@H]2N(C)C1` [ERGONOVINE], the IC50 entry (in assay [1] (huvec); in assay [2]; in assay [3]; in assay [4]; against Adenosine receptor A1; in assay [5]) was “Not Active” each time. The IC50 entry in assay [6] is reported as “Not Active”. Moreover, the Ki result in assay [4] and in assay [6] was “Not Active” in each case.
As to `COC(=O)CCc1ccc(OCC(O)CNC(C)C)cc1` (centres undefined) [ESMOLOL], the half-inhibitory concentration (IC50) result (in assay [1] (huvec); in assay [2]; in assay [3]; in assay [4]; on Adenosine receptor A1; in assay [5]) was “Not Active” in each case. Further, in assay [6], the IC50 result was “Not Active”. Besides, the Ki result in assay [4] and in assay [6] was “Not Active” in each case.
Take `CCC1(C)CC(=O)NC1=O` (centres undefined) [ETHOSUXIMIDE]: the IC50 entry (in assay [1] (huvec); in assay [2]; in assay [3]; in assay [4]; on Adenosine receptor A1; in assay [5]) was “Not Active” in each case. Besides, the concentration for half-maximal inhibition (IC50) entry in assay [6] was “Not Active”. Also, the Ki entry in assay [4] and in assay [6] was “Not Active” throughout.
For `C#C[C@]1(OC(C)=O)CC[C@H]2[C@@H]3CCC4=C[C@@H](OC(C)=O)CC[C@@H]4[C@H]3CC[C@@]21C` [ETHYNODIOL DIACETATE], the 50% inhibitory concentration (IC50) result (in assay [1] (huvec); in assay [2]; in assay [3]; in assay [4]; against Adenosine receptor A1; in assay [5]) was “Not Active” each time. For the same compound, the IC50 entry in assay [6] is reported as “Not Active”. The inhibition constant (Ki) entry in assay [4] and in assay [6] was “Not Active” in each case.
